In the supplement of paper PMC10307832:

What was measured:
Test in all cases: relative viability (nuclei count vs DMSO), 5 days (fraction); higher = more cells survive
EKVX = test system: EKVX
Procedure, shortened: (§1)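 Lung cancer cell lines, seeded in 1536-well plates, were treated the following day by pin tool with a single drug or with five library-drug doses (not always all listed) in √10 steps on top of a fixed anchor-drug dose. Cells were fixed and nuclei stained in one step after 5 days, and nuclei were counted. Relative viability is the nuclei count for treated wells divided by that for vehicle wells, reported as medians of duplicate plates.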

LCLC-97TM1 = test system: LCLC-97TM1
Procedure, shortened: as §1

NCI-H1437 = test system: NCI-H1437
Procedure, shortened: as §1

NCI-H1650 = test system: NCI-H1650
Procedure, shortened: as §1

NCI-H1666 = test system: NCI-H1666
Procedure, shortened: as §1

NCI-H1792 = test system: NCI-H1792
Procedure, shortened: as §1

NCI-H1915 = test system: NCI-H1915
Procedure, shortened: as §1

NCI-H1975 = test system: NCI-H1975
Procedure, shortened: as §1

NCI-H2342 = test system: NCI-H2342
Procedure, shortened: as §1

NCI-H23 = test system: NCI-H23
Procedure, shortened: as §1

NCI-H322M = test system: NCI-H322M
Procedure, shortened: as §1

`CCNC(=O)c1noc(-c2cc(C(C)C)c(O)cc2O)c1-c1ccc(CN2CCOCC2)cc1` [Luminespib] + Nc1nc2[nH]cc(CCc3ccc(C(=O)N[C@@H](CCC(=O)O)C(=O)O)cc3)c2c(=O)[nH]1 [Pemetrexed] (partner 0.2 µM) was tested, and the relative viability (EKVX; first compound 0.002 µM) was 0.417, the relative viability (EKVX; first compound 0.006325 µM) was 0.255 and the relative viability (EKVX; first compound 0.02 µM) was 0.408. It also gave a relative viability (EKVX; first compound 0.06325 µM) of 0.258, a relative viability (EKVX; first compound 0.2 µM) of 0.115 and a relative viability (LCLC-97TM1; first compound 0.002 µM) of 0.189. It also gave a relative viability (LCLC-97TM1; first compound 0.006325 µM) of 0.164, a relative viability (LCLC-97TM1; first compound 0.06325 µM) of 0.0959 and a relative viability (LCLC-97TM1; first compound 0.2 µM) of 0.0922. It also gave a relative viability (NCI-H1437; first compound 0.002 µM) of 0.305, a relative viability (NCI-H1437; first compound 0.006325 µM) of 0.305 and a relative viability (NCI-H1437; first compound 0.02 µM) of 0.347. For the same compound, the relative viability (NCI-H1437; first compound 0.06325 µM) was 0.266, the relative viability (NCI-H1437; first compound 0.2 µM) was 0.156 and the relative viability (NCI-H1650; first compound 0.002 µM) was 0.404. The relative viability (NCI-H1650; first compound 0.006325 µM) was 0.368, the relative viability (NCI-H1650; first compound 0.02 µM) was 0.426 and the relative viability (NCI-H1650; first compound 0.06325 µM) was 0.152. The relative viability (NCI-H1650; first compound 0.2 µM) was 0.137, the relative viability (NCI-H1666; first compound 0.002 µM) was 0.876 and the relative viability (NCI-H1666; first compound 0.006325 µM) was 0.799. It also gave a relative viability (NCI-H1666; first compound 0.02 µM) of 0.908, a relative viability (NCI-H1666; first compound 0.06325 µM) of 0.833 and a relative viability (NCI-H1666; first compound 0.2 µM) of 0.911. For the same compound, the relative viability (NCI-H1792; first compound 0.002 µM) was 0.816, the relative viability (NCI-H1792; first compound 0.006325 µM) was 0.615 and the relative viability (NCI-H1792; first compound 0.02 µM) was 0.117. It also gave a relative viability (NCI-H1792; first compound 0.06325 µM) of 0.0474, a relative viability (NCI-H1792; first compound 0.2 µM) of 0.0496 and a relative viability (NCI-H1915; first compound 0.002 µM) of 0.479. It also gave a relative viability (NCI-H1915; first compound 0.006325 µM) of 0.482, a relative viability (NCI-H1915; first compound 0.02 µM) of 0.442 and a relative viability (NCI-H1915; first compound 0.06325 µM) of 0.312. For the same compound, the relative viability (NCI-H1915; first compound 0.2 µM) was 0.0621, the relative viability (NCI-H1975; first compound 0.002 µM) was 0.315 and the relative viability (NCI-H1975; first compound 0.006325 µM) was 0.307. The relative viability (NCI-H1975; first compound 0.02 µM) was 0.34, the relative viability (NCI-H1975; first compound 0.06325 µM) was 0.137 and the relative viability (NCI-H1975; first compound 0.2 µM) was 0.153. For the same compound, the relative viability (NCI-H2342; first compound 0.002 µM) was 0.776, the relative viability (NCI-H2342; first compound 0.006325 µM) was 0.755 and the relative viability (NCI-H2342; first compound 0.02 µM) was 0.548. For the same compound, the relative viability (NCI-H2342; first compound 0.06325 µM) was 0.749, the relative viability (NCI-H2342; first compound 0.2 µM) was 0.454 and the relative viability (NCI-H23; first compound 0.002 µM) was 0.743. It also gave a relative viability (NCI-H23; first compound 0.006325 µM) of 0.655, a relative viability (NCI-H23; first compound 0.02 µM) of 0.391 and a relative viability (NCI-H23; first compound 0.06325 µM) of 0.139. The relative viability (NCI-H23; first compound 0.2 µM) was 0.14, the relative viability (NCI-H322M; first compound 0.002 µM) was 0.638 and the relative viability (NCI-H322M; first compound 0.006325 µM) was 0.507. For the same compound, the relative viability (NCI-H322M; first compound 0.02 µM) was 0.596, the relative viability (NCI-H322M; first compound 0.06325 µM) was 0.409 and the relative viability (NCI-H322M; first compound 0.2 µM) was 0.376.
